Here are results for 37 compounds from patent publication US11878966B2, “Substituted 4-benzyl and 4-benzoyl piperidine derivates” (89BIO LTD, priority 2015, dated 2024).

The target of this test is T1, recombinant human baculovirus-expressed GST-tagged FASN (Homo sapiens, UniProt P49327).
T1 construct: GST; host or cells: baculovirus expression system (insect cells implied)
T1 sequence (P49327 whole entry): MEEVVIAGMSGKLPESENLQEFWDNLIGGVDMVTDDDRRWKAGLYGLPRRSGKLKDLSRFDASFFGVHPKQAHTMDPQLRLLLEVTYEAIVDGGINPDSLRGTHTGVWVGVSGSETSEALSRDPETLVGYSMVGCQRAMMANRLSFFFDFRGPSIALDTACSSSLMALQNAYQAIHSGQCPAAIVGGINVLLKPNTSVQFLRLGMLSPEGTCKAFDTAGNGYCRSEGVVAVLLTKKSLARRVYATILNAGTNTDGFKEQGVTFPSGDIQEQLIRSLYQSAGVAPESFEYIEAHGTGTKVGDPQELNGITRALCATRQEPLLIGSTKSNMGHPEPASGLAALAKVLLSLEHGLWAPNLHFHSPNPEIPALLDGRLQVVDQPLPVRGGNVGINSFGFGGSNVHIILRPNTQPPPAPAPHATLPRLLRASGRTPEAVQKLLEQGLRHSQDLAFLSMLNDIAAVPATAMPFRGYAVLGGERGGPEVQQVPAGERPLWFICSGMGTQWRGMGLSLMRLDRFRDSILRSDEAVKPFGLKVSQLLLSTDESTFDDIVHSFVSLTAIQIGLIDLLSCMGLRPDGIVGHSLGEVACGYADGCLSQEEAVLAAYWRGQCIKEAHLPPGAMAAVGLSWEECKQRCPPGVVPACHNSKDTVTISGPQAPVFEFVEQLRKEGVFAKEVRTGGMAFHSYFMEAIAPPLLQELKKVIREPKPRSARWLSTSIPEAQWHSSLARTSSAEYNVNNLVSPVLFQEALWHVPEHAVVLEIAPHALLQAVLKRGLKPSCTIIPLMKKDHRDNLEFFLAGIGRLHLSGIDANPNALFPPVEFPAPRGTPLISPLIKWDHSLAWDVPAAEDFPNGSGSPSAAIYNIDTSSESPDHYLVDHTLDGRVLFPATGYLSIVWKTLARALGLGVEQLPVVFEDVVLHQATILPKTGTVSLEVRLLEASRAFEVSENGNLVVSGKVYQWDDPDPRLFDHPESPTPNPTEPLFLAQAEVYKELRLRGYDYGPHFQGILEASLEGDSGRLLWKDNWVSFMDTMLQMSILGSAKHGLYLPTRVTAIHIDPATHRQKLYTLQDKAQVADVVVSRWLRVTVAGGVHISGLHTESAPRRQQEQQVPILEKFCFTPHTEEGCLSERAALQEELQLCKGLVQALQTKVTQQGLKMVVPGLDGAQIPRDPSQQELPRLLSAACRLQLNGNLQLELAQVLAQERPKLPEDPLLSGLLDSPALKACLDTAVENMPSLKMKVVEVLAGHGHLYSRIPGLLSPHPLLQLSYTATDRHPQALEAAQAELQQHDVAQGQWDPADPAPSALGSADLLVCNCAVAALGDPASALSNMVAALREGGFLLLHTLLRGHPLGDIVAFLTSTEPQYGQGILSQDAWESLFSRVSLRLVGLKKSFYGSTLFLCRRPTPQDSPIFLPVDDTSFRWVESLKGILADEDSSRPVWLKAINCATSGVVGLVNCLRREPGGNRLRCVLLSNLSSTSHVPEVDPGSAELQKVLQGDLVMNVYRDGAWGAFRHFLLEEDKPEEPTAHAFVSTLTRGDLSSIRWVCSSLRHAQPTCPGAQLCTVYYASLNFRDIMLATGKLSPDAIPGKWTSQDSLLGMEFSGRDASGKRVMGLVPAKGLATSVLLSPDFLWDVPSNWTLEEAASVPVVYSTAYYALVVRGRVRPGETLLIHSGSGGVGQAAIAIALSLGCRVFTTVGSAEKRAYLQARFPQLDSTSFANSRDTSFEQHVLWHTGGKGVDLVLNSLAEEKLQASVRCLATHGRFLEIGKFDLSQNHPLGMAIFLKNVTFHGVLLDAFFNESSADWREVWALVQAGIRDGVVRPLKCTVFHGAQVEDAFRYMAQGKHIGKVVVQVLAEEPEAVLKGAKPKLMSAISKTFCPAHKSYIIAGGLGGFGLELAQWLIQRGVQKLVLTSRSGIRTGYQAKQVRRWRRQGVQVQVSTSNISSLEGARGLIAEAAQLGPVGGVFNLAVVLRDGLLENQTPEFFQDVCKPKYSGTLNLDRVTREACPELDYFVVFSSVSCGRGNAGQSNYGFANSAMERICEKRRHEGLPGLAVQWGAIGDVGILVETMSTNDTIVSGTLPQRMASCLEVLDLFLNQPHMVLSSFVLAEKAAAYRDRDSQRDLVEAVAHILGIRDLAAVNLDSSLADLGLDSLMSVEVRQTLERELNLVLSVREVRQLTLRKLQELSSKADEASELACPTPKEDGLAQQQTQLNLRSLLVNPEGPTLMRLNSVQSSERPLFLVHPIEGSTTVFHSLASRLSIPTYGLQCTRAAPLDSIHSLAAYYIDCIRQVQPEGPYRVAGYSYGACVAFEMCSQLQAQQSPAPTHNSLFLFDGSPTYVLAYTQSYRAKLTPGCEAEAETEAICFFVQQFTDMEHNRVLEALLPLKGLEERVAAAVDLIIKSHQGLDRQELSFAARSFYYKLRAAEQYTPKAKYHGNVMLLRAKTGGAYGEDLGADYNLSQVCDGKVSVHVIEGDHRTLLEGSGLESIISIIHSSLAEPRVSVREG
Put plainly: FASN enzyme activity assay: fluorescence-based detection of CoA with CPM. In kind it is biochemical. Conditions: 5 nM FASN, 150 μM NADPH, 10 μM acetyl-CoA, 25 μM malonyl-CoA, 90 minutes incubation. Summed up: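 IC50 values were fitted (variable-slope sigmoid) to percent inhibition from CPM fluorescence (390/530 nm) reporting free CoA after a 30 min labelling step. The reaction ran 90 min after malonyl-CoA (25 μM) addition, with 10 μM acetyl-CoA, 150 μM NADPH, 5 nM recombinant GST-FASN, 50 mM HEPES pH 7.5 and 0.5% DMSO.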
Consider `Cc1c(-c2ccc(C(F)(F)C3CCN(C(=O)[C@H]4CCCO4)CC3)cc2)cnc2ccccc12` [Example 11, (4-{Difluoro-[4-(4-methylquinolin-3-yl)-phenyl]-methyl}-piperidin-1-yl)-(R)-tetrahydrofuran-2-yl-methanone], for which the IC50 lay in the range of 1 to 99 nM.

On to `CC(C)C(=O)N1CCC(C2(c3ccc(-c4ccc5cccnc5c4)cc3)OCCCO2)CC1` [Example 121, 2-Methyl-1-{4-[2-(4-quinolin-7-yl-phenyl)-1,3-dioxinan-2-yl]-piperidin-1-yl}-propan-1-one], for which the IC50 lay in the range of 1000 to 10000 nM.

Consider `CC(C)C(=O)N1CCC(C2(c3ccc(-c4ccc5ccncc5c4)cc3)OCCO2)CC1` [Example 117, 1-{4-[2-(4-Isoquinolin-7-yl-phenyl)-1,3-dioxolan-2-yl]-piperidin-1-yl}-2-methyl-propan-1-one], for which the IC50 fell in the range of 1000 to 10000 nM. Take `CCNC(=O)N1CCC(Cc2ccc(-c3ccc4cccnc4c3C)cc2)CC1` [Example 229, N-ethyl-4-[[4-(8-methyl-7-quinolyl)phenyl]methyl]piperidine-1-carboxamide]: the IC50 was in the range of 1 to 99 nM.

In the case of `CCC(=O)N1CC=C(Cc2ccc(-c3ccc4cccnc4c3)cc2)CC1` [Example 164, 1-(4-(4-(quinolin-7-yl)benzyl)-5,6-dihydropyridin-1(2H)-yl)propan-1-one], the IC50 was 100 to 999 nM. To `O=C(C1CC1)N1CCC(C2(c3ccc(-c4ccc5ncccc5c4)cc3)OCCO2)CC1` [Example 99, Cyclopropyl-{4-[2-(4-quinolin-6-yl-phenyl)-1,3-dioxolan-2-yl]-piperidin-1-yl}-methanone] belongs 1000 to 10000 nM; to `Cc1c(-c2ccc(CC3(F)CCN(C(=O)C4CC4)CC3)cc2)cnc2ccccc12` [Example 191, Cyclopropyl(4-fluoro-4-(4-(4-methylquinolin-3-yl)benzyl)piperidin-1-yl)methanone], 1 to 99 nM; to `CCC(=O)N1CCC(F)(Cc2ccc(-c3ccc4occc4c3)cc2)CC1` [Example 169, 1-(4-(4-(benzofuran-5-yl)benzyl)-4-fluoropiperidin-1-yl)propan-1-one], 100 to 999 nM. Regarding `CCOC(C)(c1ccc(-c2cnc3ccccc3c2)cc1)C1CCN(C(=O)CC)CC1` (stereo not shown) [Example 206, 1-{4-[1-Ethoxy-1-(4-quinolin-3-yl-phenyl)-ethyl]-piperidin-1-yl}-propan-1-one], the IC50 is 100 to 999 nM. To `CCC(=O)N1CCC(C(OCCCN2CCOCC2)c2ccc(-c3ccc4cccnc4c3C)cc2)CC1` (stereo not shown) [Example 85, 1-{4-[[4-(8-Methylquinolin-7-yl)-phenyl]-(3-morpholin-4-yl-propoxy)-methyl]-piperidin-1-yl}-propan-1-one] belongs 1 to 99 nM; to `Cc1c(-c2ccc(CC3CCN(C(=O)N(C)C)CC3)cc2)ccc2cccnc12` [Example 233, N,N-dimethyl-4-[[4-(8-methyl-7-quinolyl)phenyl]methyl]piperidine-1-carboxamide], 1 to 99 nM. As to `CCC(=O)N1CCC(C(O)c2ccc(-c3ccc4cccnc4c3)cc2)CC1` (stereo not shown) [Example 125, 1-{4-[Hydroxy-(4-quinolin-7-yl-phenyl)-methyl]-piperidin-1-yl}-propan-1-one], the IC50 was 1 to 99 nM.

On to `CC(C)(c1ccc(-c2cnc3ccccc3c2)cc1)C1CCN(C(=O)[C@H]2CCCO2)CC1` [Example 203], for which the IC50 was in the range of 1 to 99 nM. For the compound `CC(C)C(=O)N1CCC(C2(c3ccc(-c4cnc5ccccc5c4)cc3)OCCO2)CC1` [Example 140, 2-Methyl-1-{4-[2-(4-quinolin-3-yl-phenyl)-1,3-dioxolan-2-yl]-piperidin-1-yl}-propan-1-one], the concentration for half-maximal inhibition (IC50) was 100 to 999 nM. The value for `O=C(C1CC1)N1CCC(C(F)(F)c2ccc(-c3cnc4ccccc4c3)cc2)CC1` [Example 17, Cyclopropyl-{4-[difluoro-(4-quinolin-3-yl-phenyl)-methyl]-piperidin-1-yl}-methanone] was 100 to 999 nM; that for `CCC(=O)N1CCC(C(O)c2ccc(-c3ccc4cnccc4c3)cc2F)CC1` (stereo not shown) [Example 128, 1-{4-[(2-Fluoro-4-isoquinolin-6-yl-phenyl)-hydroxy-methyl]-piperidin-1-yl}-propan-1-one] was 1 to 99 nM; that for `O=C([C@H]1CCCO1)N1CCC(C(OCCN2CCCC2)c2ccc(-c3cnc4ccccc4c3)cc2)CC1` (stereo partly drawn) [Example 88, {4-[(2-Pyrrolidin-1-yl-ethoxy)-(4-quinolin-3-yl-phenyl)-methyl]-piperidin-1-yl}-(R)-tetrahydrofuran-2-yl-methanone] was 100 to 999 nM. To `CCOC(=O)N1CCC(C2(c3ccc(-c4ccc5ncccc5c4)cc3)OCCO2)CC1` [Example 101, 4-[2-(4-Quinolin-6-yl-phenyl)-1,3-dioxolan-2-yl]-piperidine-1-carboxylic Acid Ethyl Ester] belongs 1000 to 10000 nM. `c1cnc2ccc(-c3ccc(C4(C5CCN(C6CCOCC6)CC5)OCCO4)cc3)cc2c1` [Example 108, 6-(4-{2-[1-(Tetrahydropyran-4-yl)-piperidin-4-yl]-1,3-dioxolan-2-yl}-phenyl)-quinoline]: the IC50 fell in the range of 1000 to 10000 nM.

Regarding `CCC(=O)N1CCC(C(C)(O)c2ccc(-c3ccc4cnccc4c3)cc2)C1` (stereo not shown) [Example 134, 1-{3-[1-Hydroxy-1-(4-isoquinolin-6-yl-phenyl)-ethyl]-pyrrolidin-1-yl}-propan-1-one], the IC50 lay within 1000 to 10000 nM. The value for `O=C([C@H]1CCCO1)N1CC=C(Cc2ccc(-c3cnc4ccccc4c3Cl)cc2)CC1` [Example 202, (R)-(4-(4-(4-chloroquinolin-3-yl)benzyl)-3,6-dihydropyridin-1(2H)-yl)(tetrahydrofuran-2-yl)methanone] was 1 to 99 nM. To `CCC(=O)N1CCC(F)(C(OCCOC)c2ccc(-c3ccc4cccnc4c3C)cc2)CC1` (stereo not shown) [Example 226, 1-(4-Fluoro-4-{(2-methoxy-ethoxy)-[4-(8-methyl-quinolin-7-yl)-phenyl]-methyl}-piperidin-1-yl)-propan-1-one] belongs 1 to 99 nM.

For the compound `O=C(C1CC1)N1CCC(C2(c3ccc(-c4cnc5ccccc5c4)cc3)CC2)CC1` [Example 44, Cyclopropyl-{4-[1-(4-quinolin-3-yl-phenyl)-cyclopropyl]-piperidin-1-yl}-methanone], the IC50 is 100 to 999 nM. The value for `CCC(=O)N1CCC(C(C)(O)c2ccc(-c3ccc4cccnc4c3)cc2)CC1` (stereo not shown) [Example 126, 1-{4-[1-Hydroxy-1-(4-quinolin-7-yl-phenyl)-ethyl]-piperidin-1-yl}-propan-1-one] was 100 to 999 nM. Turning to `O=C(C1CC1)N1CCC(F)(Cc2ccc(-c3ccc4occc4c3)cc2)CC1` [Example 179, (4-(4-(benzofuran-5-yl)benzyl)-4-fluoropiperidin-1-yl)(cyclopropyl)methanone], the IC50 is 100 to 999 nM. The value for `O=C([C@H]1CCCO1)N1CCC(Cc2ccc(-c3cnc4ccccc4c3Cl)cc2)CC1` [Example 22, {4-[4-(4-Chloroquinolin-3-yl)-benzyl]-piperidin-1-yl}-(R)-tetrahydrofuran-2-yl-methanone] was 1 to 99 nM; that for `CCC(=O)N1CCC(F)(Cc2ccc(-c3ccc4cccnc4c3)cc2)CC1` [Example 163, 1-(4-fluoro-4-(4-(quinolin-7-yl)benzyl)piperidin-1-yl)propan-1-one] was 1 to 99 nM. For `COC(=O)N1CCC(C(=O)c2ccc(-c3cnc4ccccc4c3)cc2F)CC1` [Example 144, 4-(2-Fluoro-4-quinolin-3-yl-benzoyl)piperidine-1-carboxylic Acid Methyl Ester], the IC50 is 1000 to 10000 nM. The value for `CCC(=O)N1CCC(Cc2ccc(-c3ccc4c(C)nccc4c3)cc2)CC1` [Example 35, 1-{4-[4-(1-methylisoquinolin-6-yl)-benzyl]-piperidin-1-yl}-propan-1-one] was 1 to 99 nM.

Take `CCC(=O)N1CCC(C(F)c2ccc(-c3cnc4ccccc4c3)cc2)CC1` (stereo not shown) [Example 6, 1-{4-[Fluoro-(4-quinolin-3-yl-phenyl)-methyl]-piperidin-1-yl}-propan-1-one]: the IC50 lay in the range of 1 to 99 nM. The value for `Cc1c(-c2ccc(CC3(F)CCN(C(=O)[C@H]4CCCO4)CC3)cc2)ccc2nccn12` [Example 97, (R)-(4-fluoro-4-(4-(5-methylimidazo[1,2-a]pyridin-6-yl)benzyl)piperidin-1-yl)(tetrahydrofuran-2-yl)methanone] was 1 to 99 nM; that for `Cc1c(-c2ccc(C(OCCCN3CCOCC3)C3CCN(C(=O)[C@H]4CCCO4)CC3)cc2)cnc2ccccc12` (stereo partly shown) [Example 87] was 1 to 99 nM; that for `CN(C)C(=O)N1CCC(C2(c3ccc(-c4ccc5ncccc5c4)cc3)OCCO2)CC1` [Example 103, 4-[2-(4-Quinolin-6-yl-phenyl)-1,3-dioxolan-2-yl]-piperidine-1-carboxylic acid dimethylamide] was 1000 to 10000 nM. To `O=C(C1CC1)N1CCC(Cc2ccc(-c3cnc4ccccc4c3)cc2)CC1` [Example 3, Cyclopropyl-[4-(4-quinolin-3-yl-benzyl)-piperidin-1-yl]-methanone] belongs 1 to 99 nM. The value for `Cc1c(-c2ccc(CC3=CCN(C(=O)C4CC4)CC3)cc2)ccc2cccnc12` [Example 184, Cyclopropyl(4-(4-(8-methylquinolin-7-yl)benzyl)-3,6-dihydropyridin-1(2H)-yl)methanone] was 100 to 999 nM; that for `CCC(=O)N1CC=C(Cc2ccc(-c3ccc4cccnc4c3C)cc2)CC1` [Example 186, 1-(4-(4-(8-methylquinolin-7-yl)benzyl)-3,6-dihydropyridin-1(2H)-yl)propan-1-one] was 1 to 99 nM. Turning to `Cc1c(-c2ccc(C(OCCCN3CCOCC3)C3CCN(C(=O)[C@H]4CCCO4)CC3)cc2)ccc2cccnc12` (stereo partly drawn) [Example 84, {4-[[4-(8-Methylquinolin-7-yl)-phenyl]-(3-morpholin-4-yl-propoxy)-methyl]-piperidin-1-yl}-(R)-tetrahydrofuran-2-yl-methanone], the IC50 was 1 to 99 nM.
